Assay results taken from EP1673349B1, “BENZIMIDAZOLE DERIVATIVES: PREPARATION AND PHARMACEUTICAL APPLICATIONS” (priority 2003, dated 2005).
Like-named read-outs stand apart in the source and are kept apart here.

Experiments:
[1] = test system: acetylated H3; experiment: Histone acetylation assay by immuno-blotting, acetylated H3; type: cell-based, human; settings: Colo205 cells, 0.1, 1, 5 and 10 µM, 24 h, western blot
Experimental: (§1) A hallmark of histone deacetylase (HDAC) inhibition is the increase in the acetylation level of histones. Histone acetylation, including H3, H4 and H2A can be detected by immuno-blotting (westem-blot). Colo205 cells, approximately 1.5 x10^6 cells/ 10 cm dish, were seeded in the previously described medium, cultivated for 24 h and subsequently treated with HDAC inhibitory agents at 0.1, 1; 5 and 10 µM final concentration. After 24 h, cells were harvested and lysed according to the instruction from Sigma Mammalian Cell Lysis Kit. The protein concentration was quantified using BCA method (Sigma Pte Ltd). The protein lysate was separated using 4-12% bis-tris SDS-PAGE gel (Invitrogen Pte Ltd) and was transferred onto PVDF membrane (BioRad Pte Ltd). The membrane was probed separately using primary antibody specific for acetylated H3, acetylated H4 or acetylated H2A (Upstate Pte Ltd). The detection antibody, goat anti rabbit antibody conjugated with HRP was used according to the manufacturing instruction (Pierce Pte Ltd). After removing the detection antibody from the membrane, an enhanced chemiluminescent substrate for detection of HRP (Pierce Pte Ltd) was added onto the membrane. After removing the substrate, the membrane was exposed to an X-ray film (Kodak) for 1 sec - 20 mins. The X-ray film was developed using the X-ray film processor. The density of each band observed on the developed film could be analysed using UVP Bioimaging software (UVP, Inc, Upland, CA). The values were then normalized against the density of actin in the corresponding samples to obtain the expression of the protein.

[2] = test system: acetylated H4; experiment: Histone acetylation assay by immuno-blotting, acetylated H4; type: cell-based, human; settings: Colo205 cells, 0.1, 1, 5 and 10 µM, 24 h, western blot
Experimental: as §1

[3] = test system: HCT116; experiment: Cell-based proliferation assay (cyquant), HCT116; settings: Homo sapiens, HCT-116; Table 5; Free base
Experimental: (§2) Human colon cancer cell lines (Colo205 and HCT116), human breast cancer cell lines (MDA-MB435 and MDA-MB231), and human lung cancer cell line (A549) were obtained from ATCC. […] MDA-MB435 cells were cultivated in DMEM containing 2 mM L-Glutamine, 5% FBS. HCT116 cells were cultivated in IMEM containing 2 mM L-Glutamine, 5% FBS. A549 and Colo205 cells were seeded in 96-wells plate at 2000 and 5000 cells per well respectively. MDA-MB435, HCT116, MDA-MB231 cells were seeded in 96-wells plate at 6000 cells per well. The plates were incubated at 37°C, 5% CO2, for 24 h. Cells, were treated with compounds at various concentration for 96 h. Cell growth was then monitored using cyquant cell proliferation assay (Invitrogen Pte Ltd). Dose response curves were plotted to determine GI50 values for the compounds using XL-fist.

[4] = test system: HDAC3; experiment: In vitro HDAC assay, HDAC3; type: biochemical; settings: Table 5; Free base
Experimental: The assay has been carried, out in 96 well format and the BIOMOL fluorescent-based HDAC activity assay has been applied. […] Flur de lys Developer was added and the reaction was incubated for 10 min. Briefly, deacetylation of the substrate sensitizes it to the developer, which then generates a fluorophore (symbol). The fluorophore is excited with 360 nm light and the emitted light (460 nm) is detected on a fluorometric plate reader (Tecan Ultra Microplate detection system, Tecan Group Ltd.).
The analytical software, Prism 3.0 has been used to generate IC50 from a series of data.

[5] = molecular target: HDAC8 enzyme; experiment: In vitro HDAC assay (BIOMOL fluorescent-based HDAC activity assay), HDAC8; type: biochemical, human
Experimental: (§3) Expression of GST-HDAC1 or HTGST-HDAC8 was done by infecting SF9 cells (Invitrogen Pte Ltd) with pDEST20-HDAC1 or pFASTBAC-GST-HDAC8 baculovirus at MOI=1 for 48 h. Soluble cell lysate was incubated with pre-equilibrated Glutathione Sepharose 4B beads (Amersham) at 4°C for 2 h. The beads were washed with PBS buffer for 3 times. The GST-HDAC1 protein or GST-HDAC8 protein was eluted by elution buffer containing 50 mM Tris, pH8.0, 150mM NaCl, 1% Triton X-100 and 10mM or 20mM reduced Glutathione. The purified GST-HDAC1 protein or purified GST-HDAC8 protein was dialyzed with HDAC storage buffer containing 10mM Tris, pH7.5, 100mM NaCl and 3mM MgCl2. 20% Glycerol was added to purified GST-HDAC1 protein or purified GST-HDAC8 before storage at -80°C.

[6] = test system: acetylated H2A; experiment: Histone acetylation assay by immuno-blotting, acetylated H2A; type: cell-based, human; settings: Colo205 cells, 0.1, 1, 5 and 10 µM, 24 h, western blot
Experimental: as §1

[7] = test system: Colo205; experiment: Cell-based proliferation assay (cyquant), Colo205; design: species or system human; settings: Homo sapiens;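 note: Colo205 cells exposed for 96 h to a range of compound concentrations, growth read by CyQUANT, GI50 taken from plotted dose-response curves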
Experimental: as §2

[8] = test system: MDA-MB231; experiment: Cell-based proliferation assay (cyquant), MDA-MB231; settings: Homo sapiens, MDA-MB-231; Table 5; Free base
Experimental: as §2

[9] = test system: MDA-MB435; experiment: Cell-based proliferation assay (cyquant), MDA-MB435; design: species or system human; settings: Homo sapiens, MDA-MB-435;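 note: GI50 taken from dose–response curves over a range of compound concentrations, with cell growth quantified by the CyQUANT proliferation assay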
Experimental: as §2

[10] = test system: A549; experiment: Cell-based proliferation assay (cyquant), A549; settings: Homo sapiens, Table 5, Free base
Experimental: as §2

[11] = molecular target: HDAC1 enzyme (Homo sapiens, UniProt Q13547); experiment: In vitro HDAC assay (BIOMOL fluorescent-based HDAC activity assay), HDAC1; type: biochemical
Sequence of HDAC1 enzyme (Q13547 whole entry): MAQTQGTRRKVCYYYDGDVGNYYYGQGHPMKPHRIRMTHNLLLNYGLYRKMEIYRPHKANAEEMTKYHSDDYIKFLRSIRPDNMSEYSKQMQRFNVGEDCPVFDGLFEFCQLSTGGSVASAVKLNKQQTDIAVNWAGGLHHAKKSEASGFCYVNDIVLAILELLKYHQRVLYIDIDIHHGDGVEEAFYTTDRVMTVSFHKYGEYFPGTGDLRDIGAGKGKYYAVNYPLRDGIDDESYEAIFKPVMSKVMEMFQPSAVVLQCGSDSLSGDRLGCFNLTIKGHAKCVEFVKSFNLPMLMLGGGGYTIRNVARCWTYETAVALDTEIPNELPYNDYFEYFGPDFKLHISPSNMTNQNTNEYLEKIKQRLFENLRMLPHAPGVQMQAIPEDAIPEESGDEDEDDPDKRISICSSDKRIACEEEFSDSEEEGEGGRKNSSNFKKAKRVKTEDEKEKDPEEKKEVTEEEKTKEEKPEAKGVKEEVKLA
Experimental: as §3

[12] = Table 3, read-out: HDAC8 Enzyme Activity IC50
[13] = COLO 205, 96 h, Table 4, 96 h treatment
[14] = COLO 205, Table 5, Salt of CF3COOH
[15] = COLO 205, Table 4, 96 h treatment
[16] = Table 5, Salt of CF3COOH, read-out: IC50 (HDAC1)
[17] = Table 5, Free base, read-out: IC50 (HDAC8)

COc1cc(Cn2c(CCc3ccccc3)nc3cc(/C=C/C(=O)NO)ccc32)cc(OC)c1OC [Compound 2, N-Hydroxy-3-[1-(3,4,5-trimethoxybenzyl)-2-(2-phenyl-ethyl)-1H-benzimidazol-5-yl]-acrylamide]
Histone acetylation activities Histone-3 [1]: Active
Histone acetylation activities Histone-4 [2]: Active
GI50 [3]: 400 nM
IC50 [4]: 64 nM
IC50 [5, 12]: 355 nM
Histone acetylation activities Histone-2A [6]: Active
GI50 [7, 13]: 430 nM
GI50 ([7]; COLO 205, Table 5, Free base): 400 nM
GI50 [7, 14]: 400 nM
GI50 [8]: 500 nM
GI50 ([9]; Table 4, 96 h treatment): 320 nM
GI50 ([9]; Table 5, Free base): 300 nM
GI50 [10]: 300 nM

CC(Cc1nc2cc(/C=C/C(=O)NO)ccc2n1CCCO)c1ccccc1 (stereo not drawn) [Compound 1, N-Hydroxy-3-[1-(3-hydroxy-propyl)-2-(2-phenyl-propyl)-1H-benzimidazol-5-yl]-acrylamide]
Histone acetylation activities Histone-3 [1]: Active
Histone acetylation activities Histone-4 [2]: Active
IC50 [5, 12]: 119 nM
Histone acetylation activities Histone-2A [6]: Active
GI50 [7, 13]: 520 nM
GI50 ([9]; Table 4, 96 h treatment): 1640 nM

O=C(/C=C/c1ccc2c(c1)nc(CCc1ccccc1)n2CCCN1CCCC1=O)NO [Compound 30, N-Hydroxy-3-{1-[3-(2-oxo-pyrrolidin-1-yl)-propyl]-2-phenethyl-1H-benzimidazol-5-yl}-acrylamide]
IC50 [5, 12]: 724 nM
GI50 [7, 13]: 11400 nM
GI50 ([9]; Table 4, 96 h treatment): 19800 nM

COc1cc(-c2nc3cc(/C=C/C(=O)NO)ccc3n2CCCO)ccc1OCc1ccccc1 [Compound 4, N-Hydroxy-3-[2-(4-benzyloxy-3-methoxy-phenyl)-1-(3-hydroxy-propyl)-1H-benzimidazole-5-yl]-acrylamide]
IC50 [5, 12]: 790 nM
GI50 [7, 13]: 29900 nM
GI50 ([9]; Table 4, 96 h treatment): 25700 nM

O=C(/C=C/c1ccc2c(c1)nc(CCc1ccccc1)n2CCCO)NO [Compound 14, N-Hydroxy-3-[1-(3-hydroxy-propyl)-2-phenethyl-1H-benzimidazol-5-yl]-acrylamide]
IC50 [5, 12]: 251 nM
GI50 [7, 13]: 3070 nM
GI50 ([9]; Table 4, 96 h treatment): 5990 nM

CCn1c(C)nc2cc(/C=C/C(=O)NO)ccc21 [Compound 43, N-Hydroxy-3-(1-Ethyl-2-methyl-1H-benzimidazol-5-yl]-acrylamide]
IC50 [5, 12]: 192 nM
GI50 [7, 15]: 9180 nM
GI50 ([9]; Table 4, 96 h treatment): 8620 nM

O=C(/C=C/c1ccc2c(c1)nc(-c1ccsc1)n2CCCO)NO [Compound 20, N-Hydroxy-3-[1-(3-hydroxy-propyl)-2-thiophen-3-yl-1H-benzimidazol-5-yl]-acrylamide]
IC50 [5, 12]: 537 nM
GI50 [7, 13]: 30900 nM
GI50 ([9]; Table 4, 96 h treatment): 37200 nM

O=C(/C=C/c1ccc2c(c1)nc(CCc1ccccc1)n2Cc1cccnc1)NO [Compound 12, N-Hydroxy-3-[1-(3-pyridylmethyl)-2-(2-phenyl-ethyl)-1H-benzimidazol-5-yl]-acrylamide]
Histone acetylation activities Histone-3 [1]: Active
Histone acetylation activities Histone-4 [2]: Active
IC50 [5, 12]: 202 nM
GI50 [7, 15]: 380 nM
GI50 ([9]; Table 4, 96 h treatment): 1070 nM

O=C(/C=C/c1ccc2c(c1)nc(-c1ccncc1)n2CCCO)NO [Compound 11, N-Hydroxy-3-[1-(3-hydroxy-propyl)-2-(4-pyridyl)-1H-benzimidazol-5-yl]-acrylamide]
IC50 [5, 12]: 161 nM
GI50 [7, 15]: > 100000 nM
GI50 ([9]; Table 4, 96 h treatment): > 100000 nM

O=C(/C=C/c1ccc2c(c1)nc(CCc1ccccc1)n2CCc1cccnc1)NO [Compound 27, N-Hydroxy-3-(2-phenethyl-1-(2-pyridin-3-yl-ethyl)-1H-benzimidazol-5-yl]-acrylamide]
IC50 [5, 12]: 329 nM
GI50 [7, 15]: 2230 nM
GI50 ([9]; Table 4, 96 h treatment): 3440 nM

O=C(/C=C/c1ccc2c(c1)nc(CCc1ccccc1)n2Cc1ccccc1)NO [Compound 33, N-Hydroxy-3-(1-Benzyl-2-phenethyl-1H-benzimidazol-5-yl)-acrylamide]
IC50 [5, 12]: 1450 nM
GI50 [7, 13]: 1540 nM
GI50 ([9]; Table 4, 96 h treatment): 3380 nM

CC(C)Cc1nc2cc(/C=C/C(=O)NO)ccc2n1CCCO [Compound 21, N-Hydroxy-3-[1-(3-hydroxy-propyl)-2-isobutyl-1H-benzimidazol-5-yl]-acrylamide]
IC50 [5, 12]: 238 nM
GI50 [7, 13]: 25900 nM
GI50 ([9]; Table 4, 96 h treatment): 30300 nM

O=C(/C=C/c1ccc2c(c1)nc(CCc1ccccc1)n2CCN1CCCCC1)NO [Compound 67, N-Hydroxy-3-[2-phenethyl-1-(piperidin-1-yl-ethyl)-1H-benzimidazol-5-yl]-acrylamide]
Histone acetylation activities Histone-3 [1]: Active
IC50 [11, 16]: 39 nM
Histone acetylation activities Histone-4 [2]: Active
GI50 [3]: 60 nM
IC50 [4]: 56 nM
IC50 [5, 17]: 254 nM
Histone acetylation activities Histone-2A [6]: Active
GI50 [7, 13]: 80 nM
GI50 ([7]; COLO 205, Table 5, Free base): 90 nM
GI50 [7, 14]: 90 nM
GI50 [8]: 60 nM
GI50 ([9]; Table 5, Free base): 190 nM
GI50 [10]: 80 nM

CN(C)CC(C)(C)Cn1c(CCc2ccccc2)nc2cc(/C=C/C(=O)NO)ccc21 [Compound 17, N-Hydroxy-3-[1-(3-Dimethylamino-2,2-dimethyl-proppyl)-2-phenethyl-1H-benzimidazol-5-yl]-acrylamide]
Histone acetylation activities Histone-3 [1]: Active
IC50 ([11]; Table 3, read-out: HDAC1 Enzyme Activity IC50): 24 nM
IC50 [11, 16]: 24 nM
Histone acetylation activities Histone-4 [2]: Active
GI50 [3]: 300 nM
IC50 [5, 12]: 353 nM
IC50 [5, 17]: 353 nM
Histone acetylation activities Histone-2A [6]: Active
GI50 [7, 13]: 60 nM
GI50 ([7]; COLO 205, Table 5, Free base): 60 nM
GI50 [7, 14]: 110 nM
GI50 ([7]; COLO 205, Table 5, Salt of HCl): 60 nM
GI50 ([7]; COLO 205, Table 5, Salt of Methane sulfonic acid): 40 nM
GI50 [8]: 700 nM
GI50 ([9]; Table 4, 96 h treatment): 560 nM
GI50 ([9]; Table 5, Free base): 600 nM
GI50 [10]: 200 nM
